Where a SMILES comes first, the peptide text is derived from it. Bridges are numbered along the chain shown (N, C = ends). [ ]: non-standard residue; d: D form. Tic = O=C(O)[C@@H]1Cc2ccccc2CN1; Pen = CC(C)(S)[C@H](N)C(=O)O; Mpa = O=C(O)CCS
How the values were obtained:
[1] = test system: αV β3 integrin, osteoclasts; test: series of assays of Example II for potency and selectivity (summary, FIG. 2)
Description: Peptides of the RGDNTic (SEQ ID NO: 56) pharmacophore group are characterized, in general, as having increased potency, whereas the peptides of the pharmacophore RGDDV (SEQ ID NO: 1) group generally have higher receptor selectivity. […] As used herein, the term "potency" or "potent" means that a peptide of the invention is active at a relatively low concentration in the assays described in Examples II and III. A potent peptide of the invention can be identified, for example, using the assays described in Examples II and III.
Selectivity can be due, for example, to the ability of a peptide of the invention to bind to αV β3 with greater affinity than it binds to other integrins. Thus, in addition to having selectivity, for example, for osteoclast binding to a matrix, a peptide of the invention also can display receptor selectivity and, therefore, more specifically alter receptor-mediated binding to a matrix. As used herein, the term "receptor selectivity" means that a peptide of the invention can bind to one receptor with greater affinity than it can bind to another receptor.

[2] = half-life of peptide in serum; details: in vivo
Description: Increased stability of a disulfide bonded peptide of the invention also can be conferred by incorporating a hydrophobic amino acid residue such as phenylalanine at position X1 or X8 or both X1 and X8 in an RGDNTic (SEQ ID NO: 56) or RGDDV (SEQ ID NO: 1) pharmacophore as disclosed herein. The presence of such a residue can stabilize the disulfide bond against enzymatic degradation (see Bauer et al., Life Sciences 31:1133-1140 (1982)). […] In addition, the half-life of a peptide in a subject can be determined, for example, by high performance liquid chromatography (HPLC) of serum samples collected from the subject at various times following administration of the peptide. One skilled in the art would know how to select appropriate elution buffers for HPLC based on the physico-chemical properties of a particular peptide.

αV β3 receptor = target: T1, αV β3 receptor (Homo sapiens, UniProt P05106+P06756); test: αV β3 ELISA (competitive receptor binding); details: receptor ELISAs compared
T1 construct: The αV β3 receptor was purified from octylglucopyranoside-extracted human placenta; from tissue; host or cells: human placenta
Method: (§1) Peptide binding to purified human αV β5 and αV β3, which are VnR's, and to α5 β1, which is a FnR, was determined using competitive ELISA assays as described below.
Peptide binding to purified αV β3 receptor was determined by using a competitive ELISA, in which αV β3 receptor was immobilized and the binding of solubilized VN, in the presence of various concentrations of peptide analogue, was detected using a monoclonal mouse IgG anti-VN antibody and a labelled anti-mouse IgG conjugate. A monoclonal anti-VN antibody can be obtained using routine methods (see, for example, Harlow and Lane, Antibodies: A laboratory manual (Cold Spring Harbor Laboratory Press 1988), which is incorporated herein by reference).
96 well microtiter plates were coated overnight at RT with 100 μl/well of αV β3 receptor (0.5 μg/ml in 1×TBS, 4 mM octylglucoside, 1 mM CaCl2). The wells were blocked with 200 μl/well of 1% BSA in 1×TBS, 1 mM CaCl2 for at least 30 min. The plates were washed 2× with 1×TBS, 1 mM CaCl2. 50 μl peptide in 1×TBS, 1 mM CaCl2, 0.05% "TWEEN 20" polyoxyethylenesorbitan monolaurate was added in 10-fold serial dilutions. 50 μl of Vn in the same buffer then was added to each well.
The plates were incubated for 3 hr at RT, then washed 3× with 1×TBS, 0.05% "TWEEN 20" polyoxyethylenesorbitan monolaurate. […] The plates were read at 490 nm and the data analyzed by four parameter fit. […]

Swiss-Webster mice = test: PTH-induced hypercalcemia assay; format: in vivo; details: peptide infused 4 hr at various doses, 0.2 mg PTH/kg i.v., FIG. 9
Description: Parathyroid hormone (PTH) activates osteoclasts, which are involved in bone resorption. Associated with the increased osteoclast activity is an increase in serum calcium. The PTH-induced hypercalcemia assay measures the level of serum calcium, which is an indication of bone resorption in a subject (Fischer et al., Endocrinology 132:1411-1413 (1993), which is incorporated herein by reference).
Swiss-Webster mice, which had been parathyroidectomized two weeks prior to beginning the assay, were obtained from Taconic Lab Animals and Services (Germantown N.Y.). Femoral vein catheters (PE-50 fused with PE10 polyethylene tubing; Becton Dickinson; Parsippany, N.J.) were installed in the mice, flushed and locked with heparinized saline (1:10), sutured to adjacent muscle and internalized within the inguinal space of the incision before closing the incision with wound clips. […]
The experiment was initiated by feeding the mice a calcium-deficient diet overnight, then injecting the mice the following morning with a bolus of 0.2 mg PTH/kg (hPTH 1-34; Bachem; Torrance Calif.), intravenously. […] Various doses of a peptide or vehicle were infused into an animal for 4 hr, then ionized serum calcium again was measured. […] Serum calcium measurements were expressed as the difference between the value 30 min before the PTH pulse and 4 hr after peptide infusion was started. […]

α5 β1 (FnR) = target: T2, α5 β1 (FnR) (Homo sapiens, UniProt P05556+P08648); test: α5 β1 ELISA (competitive receptor binding); details: receptor ELISAs compared
T2 construct: Fibronectin receptor (FnR) was purified from 100 mM octyl-glucopyranoside-extracted human placenta; from tissue; host or cells: human placenta
Method: as §1
Peptide binding to purified human α5 β1 (FnR) also was determined using a competitive ELISA. In these assays, Fn was immobilized to the wells and the binding of solubilized FnR in the presence of various concentrations of a peptide analogue was determined using a mouse monoclonal antibody to human β1 (clone P4C10; Gibco) and specific binding was visualized using a second antibody.
Microtiter wells were coated at RT by adding 100 μl of 2 μg/ml human Fn in TBS and incubating the plates overnight at 4° C. Following incubation, the plates were washed 3× with TBS/"TWEEN-20". RGD peptides were diluted in TBS containing 20 mM OG and 2 mM MnCl2 and 50 μl was added to wells at 10-fold serial dilutions. FnR was diluted in the same buffer and 50 μl was added to each well.
The plates were incubated for 3 hr at RT and washed with 300 μl TBS/"TWEEN-20". Bound receptor was incubated with 100 μl of the monoclonal anti-β1 antibody for 2 hr, then washed 3× with TBS/"TWEEN-20". […] The amount of bound second antibody was determined as described above.
The IC50 values for various RGD peptides were calculated by determining the concentration of a peptide that inhibited binding of Vn to αV β5 or αV β3 or of Fn to α5 β1 by 50%. […]

osteoclasts = details: cited from earlier work

CC(=O)N[C@H]1CSSC[C@@H](C(N)=O)NC(=O)[C@@H]2Cc3ccccc3CN2C(=O)[C@H](CO)NC(=O)[C@H](CC(=O)O)NC(=O)CNC(=O)[C@H](CCCNC(=N)N)NC1=O [compound 812, Ac-CRGDS(Tic)Cs-NH2] (Ac-CRGDS[Tic]C-NH2; disulfide 1-7)
potency (summary classification) [1]: particularly potent
activity of peptides with minimally essential elements ([1]; FIG. 2): demonstrate activity

C[C@@H]1NC(=O)[C@H](C)NC(=O)[C@@H](NC(=O)CN)C(C)(C)SSC[C@@H](C(N)=O)NC(=O)[C@H]([C@@H](C)O)NC(=O)[C@H](CC(=O)O)NC(=O)[C@H](CC(=O)O)NC(=O)CNC(=O)[C@H](CCCNC(=N)N)NC1=O [compound 186] (H-G[Pen]AARGDDTC-NH2; disulfide 2-10)
receptor selectivity (summary classification) [1]: particularly receptor selective

CC(=O)N[C@@H](Cc1ccccc1)C(=O)N[C@H]1CSSC[C@@H](C(N)=O)NC(=O)[C@H](Cc2ccccc2)NC(=O)[C@H]([C@@H](C)O)NC(=O)[C@H](CC(=O)O)NC(=O)CNC(=O)[C@H](CCCNC(=N)N)NC1=O [peptide 220] (Ac-FCRGDTFC-NH2; disulfide 2-8)
half-life in serum [2]: relatively long

CC(=O)N[C@@H]1C(=O)N[C@@H](Cc2ccccc2)C(=O)N[C@@H](C)C(=O)N[C@@H](CCCNC(=N)N)C(=O)NCC(=O)N[C@@H](CC(=O)O)C(=O)N[C@@H](CC(N)=O)C(=O)N2CCC[C@H]2C(=O)N[C@H](C(N)=O)CSSC1(C)C [peptide 214] (Ac-[Pen]FARGDNPC-NH2; disulfide 1-9)
relative affinity for αV β3, α5 β1 and αV β5 (αV β3 receptor): higher affinity for αV β3 and α5 β1 than for αV β5
potency (summary classification) [1]: particularly potent

CC(C)[C@@H]1NC(=O)[C@H](CC(=O)O)NC(=O)[C@H](CC(=O)O)NC(=O)CNC(=O)[C@H](CCCNC(=N)N)NC(=O)CCSSC[C@@H](C(N)=O)NC1=O [compound 191] ([Mpa]RGDDVC-NH2; disulfide 1-7)
effect on PTH-induced rise in serum ionized calcium (Swiss-Webster mice): decreased the PTH-induced rise in serum ionized calcium in a dose responsive manner

CC(C)[C@@H]1NC(=O)[C@H](CC(=O)O)NC(=O)[C@H](CC(=O)O)NC(=O)CNC(=O)[C@H](CCCNC(=N)N)NC(=O)[C@H](C)NC(=O)[C@H](CCCNC(=N)N)NC(=O)[C@@H](NC(=O)CN)C(C)(C)SSC[C@@H](C(=O)N[C@@H](C)C(=O)O)NC1=O [compound 138] (H-G[Pen]RARGDDVCA-OH; disulfide 2-10)
potency and selectivity together (summary classification) [1]: both potent and selective
receptor selectivity (summary classification) [1]: particularly receptor selective

C[C@H](NC(=O)[C@@H]1CSSC(C)(C)[C@H](NC(=O)CN)C(=O)N[C@@H](C)C(=O)N[C@@H](C)C(=O)N[C@@H](CCCNC(=N)N)C(=O)NCC(=O)N[C@@H](CC(=O)O)C(=O)N[C@@H](CC(N)=O)C(=O)N2CCC[C@H]2C(=O)N1)C(=O)O [compound 310] (H-G[Pen]AARGDNPCA-OH; disulfide 2-10)
selectivity toward α5 β1 versus αV β5 (α5 β1 (FnR)): more selective toward α5 β1 than toward αV β5

CC(=O)N[C@H]1CSSC(C)(C)[C@@H](C(N)=O)NC(=O)[C@@H]2CCCN2C(=O)[C@H](CC(N)=O)NC(=O)[C@H](CC(=O)O)NC(=O)CNC(=O)[C@H](CCCNC(=N)N)NC1=O [compound 228] (Ac-CRGDNP[Pen]-NH2; disulfide 1-7)
receptor selectivity (summary classification) [1]: particularly receptor selective

Echistatin
binding to osteoclasts (osteoclasts): nonselective
